Assays:
Acinetobacter baumannii [1] = assay: Antibacterial activity against Acinetobacter baumannii A897 after 24 hrs by agar dilution method; type: functional; conditions: A897, 24 h
Acinetobacter baumannii [2] = assay: Antibacterial activity against Acinetobacter baumannii A849 after 24 hrs by agar dilution method; type: functional; conditions: A849, 24 h
Acinetobacter baumannii [3] = assay: Antibacterial activity against Acinetobacter baumannii A892 after 24 hrs by agar dilution method; type: functional; conditions: A892, 24 h
Klebsiella pneumoniae [4] = assay: Antibacterial activity against beta-lactamase-positive ESBL-negative Klebsiella pneumoniae E477 after 24 hrs by agar dilution method; type: functional; conditions: E477, 24 h
Acinetobacter baumannii [5] = assay: Antibacterial activity against Acinetobacter baumannii A929 after 24 hrs by agar dilution method; type: functional; conditions: A929, 24 h
Klebsiella pneumoniae [6] = assay: Antibacterial activity against beta-lactamase-positive ESBL-negative Klebsiella pneumoniae E473 after 24 hrs by agar dilution method; type: functional; conditions: E473, 24 h
Pseudomonas aeruginosa [7] = assay: Antibacterial activity against Pseudomonas aeruginosa P320 after 24 hrs by agar dilution method; conditions: P320, 24 h
Escherichia coli [8] = assay: Antibacterial activity against beta-lactamase-negative Escherichia coli E409 after 24 hrs by agar dilution method; conditions: E409, 24 h
Escherichia coli [9] = assay: Antibacterial activity against beta-lactamase-positive ESBL-positive Escherichia coli E460 after 24 hrs by agar dilution method; conditions: E460, 24 h
Escherichia coli [10] = assay: Antibacterial activity against beta-lactamase-negative Escherichia coli E345 after 24 hrs by agar dilution method; conditions: E345, 24 h
Pseudomonas aeruginosa [11] = assay: Antibacterial activity against Pseudomonas aeruginosa P334 after 24 hrs by agar dilution method; conditions: P334, 24 h
Klebsiella pneumoniae [12] = assay: Antibacterial activity against beta-lactamase-positive ESBL-positive Klebsiella pneumoniae E453 after 24 hrs by agar dilution method; type: functional; conditions: E453, 24 h
Klebsiella pneumoniae [13] = assay: Antibacterial activity against beta-lactamase-positive ESBL-positive Klebsiella pneumoniae E475 after 24 hrs by agar dilution method; type: functional; conditions: E475, 24 h
Klebsiella pneumoniae [14] = assay: Antibacterial activity against beta-lactamase-positive ESBL-positive Klebsiella pneumoniae E457 after 24 hrs by agar dilution method; type: functional; conditions: E457, 24 h
Pseudomonas aeruginosa [15] = assay: Antibacterial activity against Pseudomonas aeruginosa P340 after 24 hrs by agar dilution method; conditions: P340, 24 h
Acinetobacter baumannii [16] = assay: Antibacterial activity against Acinetobacter baumannii A894 after 24 hrs by agar dilution method; type: functional; conditions: A894, 24 h
Escherichia coli [17] = assay: Antibacterial activity against beta-lactamase-positive ESBL-positive Escherichia coli E459 after 24 hrs by agar dilution method; conditions: E459, 24 h
Acinetobacter baumannii [18] = assay: Antibacterial activity against Acinetobacter baumannii A867 after 24 hrs by agar dilution method; type: functional; conditions: A867, 24 h
Pseudomonas aeruginosa [19] = assay: Antibacterial activity against Pseudomonas aeruginosa P319 after 24 hrs by agar dilution method; type: functional; conditions: P319, 24 h
Escherichia coli [20] = assay: Antibacterial activity against beta-lactamase-positive ESBL-positive Escherichia coli E458 after 24 hrs by agar dilution method; conditions: E458, 24 h
Escherichia coli [21] = assay: Antibacterial activity against beta-lactamase-negative Escherichia coli E344 after 24 hrs by agar dilution method; conditions: E344, 24 h
Klebsiella pneumoniae [22] = assay: Antibacterial activity against beta-lactamase-positive ESBL-positive Klebsiella pneumoniae E478 after 24 hrs by agar dilution method; type: functional; conditions: E478, 24 h
Pseudomonas aeruginosa [23] = assay: Antibacterial activity against Pseudomonas aeruginosa P326 after 24 hrs by agar dilution method; conditions: P326, 24 h
Acinetobacter baumannii [24] = assay: Antibacterial activity against Acinetobacter baumannii A884 after 24 hrs by agar dilution method; type: functional; conditions: A884, 24 h
Klebsiella pneumoniae [25] = assay: Antibacterial activity against beta-lactamase-positive ESBL-negative Klebsiella pneumoniae E472 after 24 hrs by agar dilution method; type: functional; conditions: E472, 24 h
Escherichia coli [26] = assay: Antibacterial activity against beta-lactamase-negative Escherichia coli E424 after 24 hrs by agar dilution method; conditions: E424, 24 h
Klebsiella pneumoniae [27] = assay: Antibacterial activity against beta-lactamase-positive ESBL-negative Klebsiella pneumoniae E507 after 24 hrs by agar dilution method; type: functional; conditions: E507, 24 h
Acinetobacter baumannii [28] = assay: Antibacterial activity against Acinetobacter baumannii A908 after 24 hrs by agar dilution method; type: functional; conditions: A908, 24 h
Acinetobacter baumannii [29] = assay: Antibacterial activity against Acinetobacter baumannii A865 after 24 hrs by agar dilution method; type: functional; conditions: A865, 24 h
Escherichia coli [30] = assay: Antibacterial activity against beta-lactamase-positive ESBL-negative Escherichia coli E415 after 24 hrs by agar dilution method; conditions: E415, 24 h
Pseudomonas aeruginosa [31] = assay: Antibacterial activity against Pseudomonas aeruginosa P349 after 24 hrs by agar dilution method; conditions: P349, 24 h
Klebsiella pneumoniae [32] = assay: Antibacterial activity against beta-lactamase-positive ESBL-negative Klebsiella pneumoniae E481 after 24 hrs by agar dilution method; type: functional; conditions: E481, 24 h
Pseudomonas aeruginosa [33] = assay: Antibacterial activity against Pseudomonas aeruginosa P363 after 24 hrs by agar dilution method; conditions: P363, 24 h
Pseudomonas aeruginosa [34] = assay: Antibacterial activity against Pseudomonas aeruginosa P358 after 24 hrs by agar dilution method; type: functional; conditions: P358, 24 h
Klebsiella pneumoniae [35] = assay: Antibacterial activity against beta-lactamase-negative Klebsiella pneumoniae E359 after 24 hrs by agar dilution method; type: functional; conditions: E359, 24 h
Pseudomonas aeruginosa [36] = assay: Antibacterial activity against Pseudomonas aeruginosa P328 after 24 hrs by agar dilution method; type: functional; conditions: P328, 24 h
Acinetobacter baumannii [37] = assay: Antibacterial activity against Acinetobacter baumannii A851 after 24 hrs by agar dilution method; type: functional; conditions: A851, 24 h
Escherichia coli [38] = assay: Antibacterial activity against beta-lactamase-positive ESBL-positive Escherichia coli E456 after 24 hrs by agar dilution method; conditions: E456, 24 h
Acinetobacter baumannii [39] = assay: Antibacterial activity against Acinetobacter baumannii A896 after 24 hrs by agar dilution method; type: functional; conditions: A896, 24 h
Klebsiella pneumoniae [40] = assay: Antibacterial activity against beta-lactamase-negative Klebsiella pneumoniae E362 after 24 hrs by agar dilution method; type: functional; conditions: E362, 24 h
Klebsiella pneumoniae [41] = assay: Antibacterial activity against beta-lactamase-positive ESBL-negative Klebsiella pneumoniae E511 after 24 hrs by agar dilution method; type: functional; conditions: E511, 24 h
Pseudomonas aeruginosa [42] = assay: Ratio of mutant prevention concentration to minimum Inhibitory concentration for Pseudomonas aeruginosa P332; type: functional
Acinetobacter baumannii [43] = assay: Ratio of mutant prevention concentration to minimum Inhibitory concentration for Acinetobacter baumannii A911; type: functional
Acinetobacter baumannii [44] = assay: Ratio of mutant prevention concentration to minimum Inhibitory concentration for Acinetobacter baumannii A903; type: functional
Pseudomonas aeruginosa [45] = assay: Ratio of mutant prevention concentration to minimum Inhibitory concentration for Pseudomonas aeruginosa P334; type: functional
Acinetobacter baumannii [46] = assay: Ratio of mutant prevention concentration to minimum Inhibitory concentration for Acinetobacter baumannii A890; type: functional
Acinetobacter baumannii [47] = assay: Ratio of mutant prevention concentration to minimum Inhibitory concentration for Acinetobacter baumannii A928; type: functional
Pseudomonas aeruginosa [48] = assay: Ratio of mutant prevention concentration to minimum Inhibitory concentration for Pseudomonas aeruginosa P376; type: functional
Pseudomonas aeruginosa [49] = assay: Ratio of mutant prevention concentration to minimum Inhibitory concentration for Pseudomonas aeruginosa P353; type: functional
Acinetobacter baumannii [50] = assay: Ratio of mutant prevention concentration to minimum Inhibitory concentration for Acinetobacter baumannii A885; type: functional
Pseudomonas aeruginosa [51] = assay: Ratio of mutant prevention concentration to minimum Inhibitory concentration for Pseudomonas aeruginosa P358; type: functional
Pseudomonas aeruginosa [52] = assay: Ratio of mutant prevention concentration to minimum Inhibitory concentration for Pseudomonas aeruginosa P363; type: functional
Pseudomonas aeruginosa [53] = assay: Ratio of mutant prevention concentration to minimum Inhibitory concentration for Pseudomonas aeruginosa P338; type: functional

C[C@@H](O)[C@H]1C(=O)N2C(C(=O)O)=C(SCCNC=N)C[C@H]12 [IMIPENEM ANHYDROUS]
16 µg/mL: MIC (Pseudomonas aeruginosa [23])
4 µg/mL: MIC (Acinetobacter baumannii [2]) | MIC (Acinetobacter baumannii [3]) | MIC (Klebsiella pneumoniae [4]) | MIC (Klebsiella pneumoniae [6]) | MIC (Klebsiella pneumoniae [13]) | MIC (Acinetobacter baumannii [18]) | MIC (Klebsiella pneumoniae [22]) | MIC (Klebsiella pneumoniae [32])
0.125 µg/mL: MIC (Klebsiella pneumoniae [12]) | MIC (Escherichia coli [20]) | MIC (Escherichia coli [21]) | MIC (Escherichia coli [26]) | MIC (Escherichia coli [30]) | MIC (Escherichia coli [38])
8 µg/mL: MIC (Pseudomonas aeruginosa [19]) | MIC (Klebsiella pneumoniae [25]) | MIC (Acinetobacter baumannii [29]) | MIC (Pseudomonas aeruginosa [36])
0.5 µg/mL: MIC (Acinetobacter baumannii [1]) | MIC (Acinetobacter baumannii [5]) | MIC (Pseudomonas aeruginosa [15]) | MIC (Acinetobacter baumannii [16]) | MIC (Klebsiella pneumoniae [35]) | MIC (Klebsiella pneumoniae [40])
1 µg/mL: MIC (Pseudomonas aeruginosa [11]) | MIC (Acinetobacter baumannii [24])
32 µg/mL: MIC (Pseudomonas aeruginosa [34])
2 µg/mL: MIC (Pseudomonas aeruginosa [7]) | MIC (Klebsiella pneumoniae [27]) | MIC (Pseudomonas aeruginosa [31]) | MIC (Pseudomonas aeruginosa [33]) | MIC (Acinetobacter baumannii [37]) | MIC (Klebsiella pneumoniae [41])
0.25 µg/mL: MIC (Escherichia coli [8]) | MIC (Escherichia coli [9]) | MIC (Escherichia coli [10]) | MIC (Klebsiella pneumoniae [14]) | MIC (Escherichia coli [17]) | MIC (Acinetobacter baumannii [28]) | MIC (Acinetobacter baumannii [39])

C[C@@H](O)[C@H]1C(=O)N2C(C(=O)O)=C(S[C@@H]3CN[C@H](CNS(N)(=O)=O)C3)[C@H](C)[C@H]12 [DORIPENEM]
4: Ratio (Acinetobacter baumannii [44]) | Ratio (Acinetobacter baumannii [46]) | Ratio (Pseudomonas aeruginosa [49])
2: Ratio (Acinetobacter baumannii [43]) | Ratio (Acinetobacter baumannii [47]) | Ratio (Acinetobacter baumannii [50])
>16: Ratio (Pseudomonas aeruginosa [42]) | Ratio (Pseudomonas aeruginosa [45]) | Ratio (Pseudomonas aeruginosa [48])
16: Ratio (Pseudomonas aeruginosa [52]) | Ratio (Pseudomonas aeruginosa [53])
8: Ratio (Pseudomonas aeruginosa [51])

Source: ChEMBL document CHEMBL1255475, “Mutant prevention concentrations of four carbapenems against gram-negative rods” (2010)
